The test system of assay [1] is rat adipocytes (랫트 지방 세포). The assay is described as follows: Lipogenesis (지방형성): incorporation of D-[3-3H]glucose into toluene-soluble lipids in isolated rat adipocytes. Type of assay: cell-based. The conditions noted are these: 90 min, 37°C; for pEC50: concentration giving 50% of the compound's own maximum stimulation; for %Insmax: maximum insulin stimulation ratio (with/without insulin) = 100%.

In assay [2] the test system is rat adipocytes (랫트 지방 세포). Nature of the assay: Glucose transport (글루코오스 이송): uptake of 2-[3H]-deoxyglucose in isolated rat adipocytes. The conditions noted are these: 15 min, 37°C, then 2-[3H]-deoxyglucose at room temperature; for pEC50: concentration giving 50% of the compound's own maximum stimulation; for %Insmax: maximum insulin stimulation ratio = 100%. The class given is cell-based.

pEC50: −log10 of the molar value.

The values below come from patent KR19980042868A, “인슐린-유사 작용을 갖는 이노시톨글리칸” (피셔 한스-위르겐, priority 1996, dated 1998).

By pEC50 is commonly meant −log10 of the EC50, conventionally taken in molar units. Low readings indicate a high EC50, high ones a low EC50. Turning to “HO-PO(H)O-6Manα1(Manα1-2)-2Manα1(6-EtNP)-6Manα1(2-EtNP)-4GluNβ1-6(D)이노시톨-1,2-(사이클릭)-포스페이트”, in assay [1], the pEC50 was 4.22 and the “%Insmax” value was found to be 48%. In addition, in assay [2], the pEC50 is 4.52 and the “%Insmax” value was found to be 34%.
On the same counts, the results for “HO-PO(H)O-6Manα1(Manα1-2)-2Manα1-6Manα1-3GluNβ1-6(L)이노시톨-3-포스페이트 [D]” are 4.70, 33%, 4.74 and 18%.
As to “HO-PO(H)O-6Manα1(Manα1-2)-2Manα1-6Manα1-4GluNα1-6(L)이노시톨-2-포스페이트 [F]”, in assay [1], the pEC50 is 4.82 and the “%Insmax” value is recorded as 53%. Moreover, in assay [2], the pEC50 was 4.60 and the “%Insmax” value worked out at 26%.
For “HO-PO(H)O-6Manα1(Manα1-2)-2Manα1-6Manα1-4GluNβ1-6(D)이노시톨-1,2-(사이클릭)-티오포스페이트 [C]” the same measures were 5.15, 64%, 5.00 and 29%.
On the same counts, the results for “HO-PO(H)O-6Manα1(Manα1-2)-2Manα1-6Manα1-4GluNβ1-6(D)이노시톨-1,2-(사이클릭)-포스페이트 [화합물 B]” are 5.09, 77%, 5.09 and 41%.
On the same counts, the results for HO-PO(H)O-6Manα1-4GluNα1-6(L)이노시톨 are 4.60, 15%, 5.00 and 2%.
“HO-PO(H)O-6Manα1-4GluNα1-6(L)이노시톨-1,2-(사이클릭)-포스페이트”: in assay [1], the pEC50 is 4.82 and the “%Insmax” value stood at 25%. Besides, in assay [2], the pEC50 was 4.82 and the “%Insmax” value came to 9%.
As for “HO-PO(H)O-6Manα1-6-Manα1-6Manα1-6Manα1-3GluNβ1-6(L)이노시톨-3-포스페이트 [I]”, in assay [1], the pEC50 is 4.70 and the “%Insmax” value is recorded as 18%. For the same substance, in assay [2], the pEC50 is 4.30 and the “%Insmax” value is on record as 14%.
Consider “HO-PO(H)O-6Manα(Manα1-2)-2Manα1-6Manα1-4GluNβ1-6(L)이노시톨-1,2-(사이클릭)-포스페이트 [화합물 A]”, for which the pEC50 in assay [1] is 5.15; in assay [2], 5.10. Besides, the entries for the “%Insmax” value in assay [1] and in assay [2] were 59% and 28%, respectively.
